In BindingDB's records for doi:10.1021/jm960596u (National Cancer Institute-Bethesda, 1997):

What was measured:
Integrase [1] = biological target: T1, Integrase (Human immunodeficiency virus 1, UniProt Q7ZJM1); assay: Inhibitory concentration to inhibit HIV-1 integrase by 3' -processing method
Integrase [2] = biological target: T1, Integrase; assay: Inhibitory concentration against HIV-1 integrase by strand transfer method

T1 sequence (Q7ZJM1 whole entry): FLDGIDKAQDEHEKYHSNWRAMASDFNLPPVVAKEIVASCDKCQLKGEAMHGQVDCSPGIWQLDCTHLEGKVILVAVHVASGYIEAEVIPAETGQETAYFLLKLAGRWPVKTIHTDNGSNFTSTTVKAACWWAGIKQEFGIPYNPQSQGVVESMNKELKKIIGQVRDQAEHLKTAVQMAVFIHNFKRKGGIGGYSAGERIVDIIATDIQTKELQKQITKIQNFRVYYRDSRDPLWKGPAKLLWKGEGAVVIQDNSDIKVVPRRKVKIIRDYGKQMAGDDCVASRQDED

SMILES	IC50 (Integrase [1])	IC50 (Integrase [2])
Cc1[nH]n(-c2ccccc2)c(=O)c1N=Nc1ccc(S(=O)(=O)Nc2ccccn2)cc1 [4-(3-Methyl-5-oxo-1-phenyl-4,5-dihydro-1H-pyrazol-4-ylazo)-N-pyridin-2-yl-benzenesulfonamide]	> 200 µM	> 200 µM
Cc1[nH]n(-c2ccccc2)c(=O)c1N=Nc1ccc(S(=O)(=O)Nc2ncccn2)cc1 [4-(3-Methyl-5-oxo-1-phenyl-4,5-dihydro-1H-pyrazol-4-ylazo)-N-pyrimidin-2-yl-benzenesulfonamide]	> 200 µM	> 200 µM
CCC(=O)CC=c1[nH]c2nnc(CCCCc3nnc4[nH]c(=CCC(=O)CC)c(=O)n34)n2c1=O [1-(5-oxo-3-{4-[5-oxo-6-(3-oxopentyl)-5H-imidazo[2,1-c][1,2,4]triazol-3-yl]butyl}-5H-imidazo[2,1-c][1,2,4]triazol-6-yl)-3-pentanone]	> 200 µM	> 200 µM
NS(=O)(=O)c1ccc(N=Cc2c(O)n(-c3ccccc3)n(-c3ccccc3)c2=O)cc1 [4-[(3,5-Dioxo-1,2-diphenyl-pyrazolidin-4-ylidenemethyl)-amino]-benzenesulfonamide]	> 200 µM	> 200 µM
Cc1[nH]n(-c2ccccc2)c(=O)c1N=Nc1ccc(S(N)(=O)=O)cc1	> 200 µM	> 200 µM
NS(=O)(=O)c1ccc(N=Nc2c(O)n(-c3ccccc3)n(-c3ccccc3)c2=O)cc1 [4-[N'-(3,5-Dioxo-1,2-diphenyl-pyrazolidin-4-ylidene)-hydrazino]-benzenesulfonamide]	> 200 µM	> 200 µM
Cc1cc(NS(=O)(=O)c2ccc(N=Nc3c(C)[nH]n(-c4ccccc4)c3=O)cc2)nc(C)n1 [N-(2,6-Dimethyl-pyrimidin-4-yl)-4-(3-methyl-5-oxo-1-phenyl-4,5-dihydro-1H-pyrazol-4-ylazo)-benzenesulfonamide]	> 200 µM	> 200 µM
NS(=O)(=O)c1ccc(NN=C2Sc3nc4ccccc4n3C2=O)cc1 [4-(3-Oxo-2,3-dihydro-benzo[4,5]imidazo[2,1-b]thiazol-2-ylazo)-benzenesulfonamide]	> 200 µM	> 200 µM

Second part, the molecule after the results:

IC50 (Integrase [1])	IC50 (Integrase [2])	SMILES
> 200 µM	> 200 µM	CC1=C(N)C(=NNc2ccc(S(=O)(=O)Nc3nccc(C)n3)cc2)C(=O)C(C)C1=O (stereo not given) [4-(2-Amino-3,5-dimethyl-4,6-dioxo-cyclohex-1-enylazo)-N-(4-methyl-pyrimidin-2-yl)-benzenesulfonamide]
> 200 µM	> 200 µM	CC1=C(N)C(=NNc2ccc(S(=O)(=O)Nc3nccs3)cc2)C(=O)C(C)C1=O (stereo not given) [4-(2-Amino-3,5-dimethyl-4,6-dioxo-cyclohex-1-enylazo)-N-thiazol-2-yl-benzenesulfonamide]
> 200 µM	> 200 µM	CC1=C(N)C(=NNc2ccc(S(=O)(=O)Nc3ncccn3)cc2)C(=O)C(C)C1=O (stereo not given) [4-(2-Amino-3,5-dimethyl-4,6-dioxo-cyclohex-1-enylazo)-N-pyrimidin-2-yl-benzenesulfonamide]
> 200 µM	> 200 µM	CC1=C(N)C(=NNc2ccc(S(=O)(=O)Nc3cc(C)nc(C)n3)cc2)C(=O)C(C)C1=O (stereo not given) [4-(2-Amino-3,5-dimethyl-4,6-dioxo-cyclohex-1-enylazo)-N-(2,6-dimethyl-pyrimidin-4-yl)-benzenesulfonamide]
> 200 µM	> 200 µM	CC1=C(N)C(=NNc2ccc(S(=O)(=O)Nc3scc(C)c3C)cc2)C(=O)C(C)C1=O (stereo not given) [4-(2-Amino-3,5-dimethyl-4,6-dioxo-cyclohex-1-enylazo)-N-(3,4-dimethyl-thiophen-2-yl)-benzenesulfonamide]
> 200 µM	> 200 µM	CC1=C(N)C(=NNc2ccc(S(=O)(=O)Nc3ccccn3)cc2)C(=O)C(C)C1=O (stereo not given) [4-(2-Amino-3,5-dimethyl-4,6-dioxo-cyclohex-1-enylazo)-N-pyridin-2-yl-benzenesulfonamide]
> 200 µM	> 200 µM	CC1=C(N)C(=NNc2ccc(S(=O)(=O)Nc3nnc(C)s3)cc2)C(=O)C(C)C1=O (stereo not given) [4-(2-Amino-3,5-dimethyl-4,6-dioxo-cyclohex-1-enylazo)-N-(5-methyl-[1,3,4]thiadiazol-2-yl)-benzenesulfonamide]
